{
  "source": "patent US20250144250A1",
  "about": "“PH-SENSITIVE FLUOROPHORES” (The General Hospital Corporation, priority 2022, published 2025)",
  "key": {"[1]": {"test_system": "peritoneal dissemination of ID8 ovarian cancer", "test": "Preclinical intraoperative fluorescence-guided surgery", "assay_type": "in vivo, mice", "conditions": "FGS 4 h post-injection, 20 nmol", "experimental": "Preclinical intraoperative fluorescence-guided surgery: We performed preclinical fluorescence-guided surgery (FGS) in mice with peritoneal dissemination of ID8 ovarian cancer using the FLARE imaging system. We injected 20 nmol of PH08 in 100 μL of 5% wt/v BSA/saline into the mouse intraperitoneally 4 h prior to the surgery. The abdominal cavity was opened with a midline incision under isoflurane inhalational anesthesia. The entire abdominal cavity was examined carefully by a surgeon using color and fluorescent imaging on the FLARE imaging system. Peritoneal dissemination was resected under white light assisted with the color and fluorescent images.\nEvaluation of in vivo efficacy of NIR fluorophores for fluorescence-guided surgery (FGS): Having confirmed the pH sensitivity and tumor cell uptake of PH08 in vitro, we next evaluated the in vivo performance of the pH sensing NIR fluorophores in a mouse model of ovarian cancer. […] In this model, approximately 12 week post-peritoneal injection of ID8 cells, numerous nodules were observed on the peritoneum. These small nodules (<1 mm) are extremely difficult to localize and visualize in the surgical field. Thus, this model was suitable to test the performance of this fluorophore. […] The signal of PH08 allowed for clear visualization of the lesions that measured 5 mm or less than 1 mm in diameter. […]"}, "[2]": {"test_system": "ID8 ovarian cancer tumor tissue", "test": "Histological analysis of tumor-targetability of the NIR fluorophore", "assay_type": "in vivo, mice", "conditions": "frozen sections, 4 h post-injection of 20 nmol", "experimental": "Histological analysis of tumor-targetability of the NIR fluorophore: To determine the tissue distribution of the NIR fluorophore, tumors and major organs were removed from ID8 ovarian cancer-bearing mice 4 h post-injection with 20 nmol of PH08 in 100 μL of 5% wt/v BSA/saline. The dissected tissues were trimmed and embedded in Tissue-Tek optimum cutting temperature (OCT) compound (Sakura Finetek, Torrance, CA) without a pre-fixation step, and the tissue block was frozen at −80° C. Ten-μm thick frozen sections were cut by a cryostat (Leica, Germany). The slides were subject to fluorescence analysis first, then stained for hematoxylin and eosin (H&E). Fluorescence and brightfield images were acquired on the 4-channel Nikon TE2000 epifluorescence microscope. Image acquisition and analysis were performed using IPLab software (Scanalytics, Fairfax, VA). […] Exposure times were adjusted to obtain a similar maximum fluorescence value for each fluorescence image. […] In order to validate the tumor-specific fluorescence signal, frozen sections including both tumor and adjacent normal tissues harvested from tumor-bearing mice were examined by fluorescence microscopy. […] The fluorescence signal was mostly seen on the top 3-4 layers of cells in the tumor tissue, of which the signal was found predominantly in the extracellular space and cytoplasm."}},
  "data": [
    {"smiles": "CCN1/C(=C/C=C2\\CCCC(/C=C/C3=[N+](CC)c4ccccc4C3(C)C)=C2N2CCNCC2)C(C)(C)c2ccccc21", "note": "[PH08]", "values": [
      {"measurement": "outcome of FGS", "setting": "[1]", "value": "complete resection of metastatic nodules"},
      {"measurement": "fluorescence signal in tissue sections", "setting": "[2]", "value": "detected throughout the tumor tissue with no substantial fluorescence signals in neighboring muscles"}
    ]}
  ]
}
